Test results taken from patent US11197857B2, “Combination therapy” (GlaxoSmithKline Intellectual Property Development Limited, priority 2016, dated 2021).

How the values were obtained:
PRMT5/MEP50 = PRMT5/MEP50 (Homo sapiens, UniProt O14744); assay: PRMT family radioactive assay; type: biochemical; conditions: 60 minute SAM:Enzyme:Compound A preincubation
PRMT9 = PRMT9 (Homo sapiens, UniProt Q6P2P2); assay: PRMT family radioactive assay; type: biochemical; conditions: 60 minute SAM:Enzyme:Compound A preincubation
Sequence of PRMT9 (Q6P2P2 whole entry): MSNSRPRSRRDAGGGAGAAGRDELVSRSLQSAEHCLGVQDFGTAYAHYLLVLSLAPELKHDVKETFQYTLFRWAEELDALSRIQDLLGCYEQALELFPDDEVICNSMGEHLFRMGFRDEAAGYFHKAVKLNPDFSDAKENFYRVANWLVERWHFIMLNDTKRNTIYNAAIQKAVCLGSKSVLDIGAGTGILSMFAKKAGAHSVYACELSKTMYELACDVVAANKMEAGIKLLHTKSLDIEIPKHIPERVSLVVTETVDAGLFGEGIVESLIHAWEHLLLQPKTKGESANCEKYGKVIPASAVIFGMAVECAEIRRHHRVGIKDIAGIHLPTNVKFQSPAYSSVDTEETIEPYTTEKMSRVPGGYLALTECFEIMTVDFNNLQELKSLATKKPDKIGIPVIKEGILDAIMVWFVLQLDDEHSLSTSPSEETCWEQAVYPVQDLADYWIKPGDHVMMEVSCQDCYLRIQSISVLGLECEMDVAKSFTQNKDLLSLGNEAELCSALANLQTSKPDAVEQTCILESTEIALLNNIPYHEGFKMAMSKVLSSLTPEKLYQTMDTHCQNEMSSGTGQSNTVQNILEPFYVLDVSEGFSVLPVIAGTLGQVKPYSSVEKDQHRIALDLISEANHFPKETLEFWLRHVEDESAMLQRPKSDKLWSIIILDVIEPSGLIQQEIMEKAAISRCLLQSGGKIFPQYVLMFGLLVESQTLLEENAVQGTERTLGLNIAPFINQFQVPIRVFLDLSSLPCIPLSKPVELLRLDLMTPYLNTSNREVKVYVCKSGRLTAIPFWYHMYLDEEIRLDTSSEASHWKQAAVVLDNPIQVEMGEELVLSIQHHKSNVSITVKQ

Lymphoma cell lines = assay: 6-day growth-death assay (Cell Titer Glo); type: cell-based, human; conditions: 59 cell lines
[1] = tested on: Bladder cancer cell lines; assay: 6-day growth-death assay (Cell Titer Glo); type: cell-based, human; conditions: 18 cell lines
Colon cancer cell lines = assay: 6-day growth-death assay (Cell Titer Glo); type: cell-based, human
Kidney cancer cell lines = assay: 6-day growth-death assay (Cell Titer Glo); type: cell-based, human; conditions: 10 cell lines
Melanoma cell lines = assay: 6-day growth-death assay (Cell Titer Glo); type: cell-based, human
[2] = tested on: ADMA, MMA, SDMA in Toledo cells; assay: arginine methylation western analysis (time course and washout); type: cell-based, human; set-up: time to return of MMA to baseline after washout / time to return of ADMA to baseline after washout / time to return of SDMA to baseline after washout: dose or concentration left out as unconfirmed
Text: (B) Representative western blots of arginine methylation marks. Regions quantified are denoted by black bars on the right of the gel.
(B) Representative western blots of arginine methylation marks. Regions quantified for (A) are denoted by black bars on the side of the gel.
As predicted, ADMA methylation decreased while MMA increased upon compound exposure (FIG. 12). […] Given the detection of numerous substrates with varying kinetics, and variability of ADMA levels among DMSO-treated samples, both the full lane and a prominent 45 kDa band were characterized to assess ADMA. Increases in MMA were apparent by 24 hours and near maximal by 48 hours while decreases in the 45 kDa ADMA band required 72-96 hours to achieve maximal effect. Increases in SDMA were apparent after 48 hours of compound exposure and continued to increase through 120 hours, consistent with the potential switch from conversion of MMA to ADMA by Type I PRMTs to SDMA by Type II PRMTs (FIG. 12).
Cells were then washed, cultured in Compound A-free media, samples were collected daily through 120 hours, and arginine methylation levels were examined by western analysis. […] SDMA appeared to continue to increase even after 6 hours of washout. This is consistent with the continued increase observed through 120 hours without any obvious plateau (FIG. 12) coupled with the durable increase in MMA that has not yet returned to baseline after washout. Durability of each modification generally reflected the kinetics of arginine methylation changes brought about by Compound A, with MMA being the most rapid.

Toledo cells = tested on: Toledo cells
Text: FIG. 18: Propidium iodide FACS analysis of cell cycle in human lymphoma cell lines. […] Data represents the average±SEM of biological replicates, n=2.

786-O = assay: 6-day growth-death assay (Cell Titer Glo); type: cell-based, human; conditions: ccRCC
Method: (§1) The growth of all cell lines was evaluated over time across a wide range of seeding densities to identify conditions that permitted proliferation throughout the entire 6-day assay. Cells were plated at the optimal seeding density and after overnight incubation, a 20-point 2-fold titration of compound was added and plates were incubated for 6 days. A replicate plate of cells was harvested at the time of compound addition to quantify the starting number of cells (T0). Values obtained after the 6 day treatment were expressed as a function of the T0 value and plotted against compound concentration. The T0 value was normalized to 100% and represents the number of cells at the time of compound addition. The data were fit with a 4 parameter equation to generate a concentration response curve and the growth IC50 (gIC50) was determined. The gIC50 is the midpoint of the ‘growth window’, the difference between the number of cells at the time of compound addition (To) and the number of cells after 6 days (DMSO control). The growth-death assay can be used to quantify the net population change, clearly defining cell death (cytotoxicity) as fewer cells compared to the number at the time of compound addition (To).

ACHN = assay: 6-day growth-death assay (Cell Titer Glo); type: cell-based, human
Method: as §1

CAKI-1 = assay: 6-day growth-death assay (Cell Titer Glo); type: cell-based, human; conditions: CAKI-1, ccRCC
Method: as §1

KASUMI-1 = assay: 6-day growth-death assay (Cell Titer Glo); type: cell-based, human
Method: as §1

SK-NEP-1 = assay: 6-day growth-death assay (Cell Titer Glo); type: cell-based, human; conditions: SK-NEP-1, Wilm's
Method: as §1

[3] = tested on: panel of 4 ccRCC cell lines
[4] = tested on: Toledo (human DLBCL) xenograft; assay: Toledo xenograft efficacy

Sequence of PRMT5/MEP50 (O14744 whole entry): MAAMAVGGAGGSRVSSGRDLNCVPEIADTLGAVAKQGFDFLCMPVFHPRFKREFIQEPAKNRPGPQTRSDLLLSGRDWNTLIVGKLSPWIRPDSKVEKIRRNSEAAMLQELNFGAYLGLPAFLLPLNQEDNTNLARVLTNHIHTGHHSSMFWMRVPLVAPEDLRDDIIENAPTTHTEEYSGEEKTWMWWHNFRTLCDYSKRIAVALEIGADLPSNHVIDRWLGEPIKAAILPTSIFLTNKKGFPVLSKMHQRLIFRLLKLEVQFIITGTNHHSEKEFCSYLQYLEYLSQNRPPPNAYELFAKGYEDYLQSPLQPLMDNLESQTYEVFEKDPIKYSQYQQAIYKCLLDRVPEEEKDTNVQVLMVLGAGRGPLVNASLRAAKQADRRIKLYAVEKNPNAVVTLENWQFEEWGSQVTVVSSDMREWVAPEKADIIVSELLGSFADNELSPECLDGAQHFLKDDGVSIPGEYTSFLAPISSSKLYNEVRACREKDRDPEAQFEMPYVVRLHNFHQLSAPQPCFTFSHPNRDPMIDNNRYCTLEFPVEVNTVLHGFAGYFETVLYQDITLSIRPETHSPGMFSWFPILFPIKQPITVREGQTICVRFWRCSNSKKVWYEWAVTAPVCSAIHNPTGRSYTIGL
Sequence of PRMT5/MEP50 (Q9BQA1 whole entry partner): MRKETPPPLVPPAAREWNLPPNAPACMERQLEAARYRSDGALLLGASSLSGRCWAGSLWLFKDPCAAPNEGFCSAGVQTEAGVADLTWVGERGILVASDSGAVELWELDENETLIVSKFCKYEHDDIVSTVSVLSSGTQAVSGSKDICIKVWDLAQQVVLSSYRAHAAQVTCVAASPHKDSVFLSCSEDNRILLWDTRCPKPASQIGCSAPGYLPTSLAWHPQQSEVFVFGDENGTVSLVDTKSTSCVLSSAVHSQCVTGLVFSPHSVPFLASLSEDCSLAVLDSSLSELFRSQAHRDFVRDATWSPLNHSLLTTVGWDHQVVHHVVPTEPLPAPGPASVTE

`CCOCC1(COCC)CCC(c2n[nH]cc2CN(C)CCNC)CC1` [Compound A] was tested, and the inhibition of activity (PRMT5/MEP50) was “failed to inhibit”, the inhibition of activity (PRMT9) was “failed to inhibit” and the “% Cytotoxic (cell lines with negative Ymin-T0)” value (shortened to “% Cytotoxic”) (Lymphoma cell lines) was 54%. For the same molecule, the “% gIC100 < 2 μM (share of cell lines)” value (Lymphoma cell lines) was 14%, the “Median gIC100” value (Lymphoma cell lines) was 21.62 µM and the “% Cytotoxic” value [1] was 0%. The “% gIC100 < 2 μM (share of cell lines)” value [1] was 0%, the “Median gIC100” value [1] was 29.33 µM and the “% Cytotoxic” value (Colon cancer cell lines; Colon, 34 cell lines) was 3%. The “% gIC100 < 2 μM (share of cell lines)” value (Colon cancer cell lines; Colon, 34 cell lines) was 0%, the “Median gIC100” value (Colon cancer cell lines; Colon, 34 cell lines) was 29.33 µM and the IC50 (Colon cancer cell lines; Homo sapiens, read-out: Median gIC50) was 5510 nM. For the same molecule, the “% Cytotoxic” value (Kidney cancer cell lines) was 0%, the “% gIC100 < 2 μM (share of cell lines)” value (Kidney cancer cell lines) was 0% and the “Median gIC100” value (Kidney cancer cell lines) was 29.35 µM. The “% Cytotoxic” value (Melanoma cell lines; Melanoma, 7 cell lines) was 0%, the “% gIC100 < 2 μM (share of cell lines)” value (Melanoma cell lines; Melanoma, 7 cell lines) was 0% and the “Median gIC100” value (Melanoma cell lines; Melanoma, 7 cell lines) was 29.33 µM. The nature of effect (Melanoma cell lines; all melanoma lines) was “cytostatic”, the “time after which increases in SDMA were apparent” value ([2]; 0.4 μM) was 48 h and the “time by which increases in MMA were apparent” value ([2]; 0.4 μM) was ≤ 24 h. For the same molecule, the “time by which increases in MMA were near maximal” value ([2]; 0.4 μM) was ≤ 48 h, the “time required for maximal decrease of 45 kDa ADMA band” value ([2]; 0.4 μM) was 72 to 96 h and the ADMA methylation change ([2]; 0.4 μM, up to 120 hours) was “decreased”. The MMA change ([2]; 0.4 μM, up to 120 hours) was “increased”, the SDMA level change ([2]; 0.4 μM, up to 120 hours) was “increase” and the “time to return of ADMA to baseline after washout” value ([2]; then washout) was ≤ 24 h. For the same molecule, the “time to return of MMA to baseline after washout” value ([2]; then washout) was ≤ 24 h, the “time to return of SDMA to baseline after washout” value ([2]; then washout) was ≤ 96 h and the “concentrations giving accumulation of cells in sub-G1” value (Toledo cells; beginning after 3 days of treatment) was 1000 nM. The “concentrations giving increase in sub-G1 population” value (Toledo cells; by day 7) was 100 nM, the Ymin-T0 (786-O) was 643.7 and the IC50 (ACHN; Homo sapiens, read-out: gIC50) was 100 ± 50 nM. For the same molecule, the Ymin-T0 (ACHN; ccRCC) was 96.5, the Ymin-T0 (CAKI-1) was 178.7 and the IC50 (KASUMI-1; Homo sapiens, Kasumi 1, read-out: gIC50) was 360 ± 250 nM. For the same molecule, the Ymin-T0 (KASUMI-1; KASUMI-1, subtype M2) was −17.7, the gIC100 (KASUMI-1; KASUMI-1, subtype M2) was 18.88 ± 10.55 µM and the Ymin-T0 (SK-NEP-1) was 25.3. The “percent growth inhibition reached” value ([3]; all cell lines evaluated, within 6 days) was 100%, the “concentration at which caspase cleavage occurred” value ([3]; only at the highest concentration) was 30 µM and the “Body weight Difference (vs. vehicle)” value ([4]; 300 mg/kg QD oral, day 28) was −3%. The Regression ([4]; 300 mg/kg QD oral, day 28) was “(37%)”, the “Body weight Difference (vs. vehicle)” value ([4]; 450 mg/kg QD oral, day 28) was −8% and the Regression ([4]; 450 mg/kg QD oral, day 28) was “(58%)”. The “Body weight Difference (vs. vehicle)” value ([4]; 600 mg/kg QD oral, day 28) was −7%, the Regression ([4]; 600 mg/kg QD oral, day 28) was “(62%)” and the “Body weight Difference (vs. vehicle)” value ([4]; […] mg/kg QD oral, day 28) was −4%. The body weight loss ([4]; any dose group, 150-600 mg/kg daily, 28 days) was “no significant body weight loss”, the “doses at which regressions were observed” value ([4]; oral, daily, 28 days) was ≥ 300 mg/kg and the “Body weight Difference (vs. vehicle)” value ([4]; second study, 37.5 mg/kg QD, day 25) was −5%. For the same molecule, the “Body weight Difference (vs. vehicle)” value ([4]; second study, 75 mg/kg BID, day 25) was −4%, the “Body weight Difference (vs. vehicle)” value ([4]; second study, 75 mg/kg QD, day 25) was −5% and the “Body weight Difference (vs. vehicle)” value ([4]; second study, 150 mg/kg QD, day 25) was −7%.
